These results are taken from US4315942A, “Intravenously administrable iron supplement” (New England Medical Center, Inc., priority 1979, dated 1982).

For data set [1] the following is noted: oral, relatively large daily doses; cited from earlier work.
Data set [2] can be described thus: Hgb and Hct after IV injection of the complex in a dog. It is filed as in vivo. The conditions noted are these: after injection of 12 mg Fe, IV push, about 10 minutes. The method, then:
(§1) A 17 kg dog was premedicated and then anesthesized with IV sodium amytal. Through a femoral vein cutdown, the following studies were drawn before and after the addition of the iron complex solution: Hgb, Hct, serum Fe and TIBC (Total Iron Binding Capacity). In addition, serum Fe and TIBC were drawn after the addition of one half of the solution.
(§2) 40 ml of fresh stock solution (containing 6 mg of iron) were given by IV push through the femoral vein. The dog's ECG was monitored throughout the procedure. In approximately 10 minutes, the second set of studies were drawn and a second 40 ml were pushed. The final set of blood studies were drawn in approximately 10 minutes.

The next data set concerns serum transferrin. The data set is described as follows: Serum Fe, TIBC and saturation of serum transferrin after IV injection of the complex in a dog (efficacy to increase bioavailable iron). It is filed as in vivo. The conditions noted are these: for serum Fe / TIBC (Total Iron Binding Capacity): IV push; for serum Fe: before injection 235 (dog fed an iron rich diet); for TIBC (Total Iron Binding Capacity): before injection 360. The method, then: as §1, §2

Setting [3] is: after injection of 6 mg Fe, about 10 minutes.
Setting [4] is: after injection of 12 mg Fe, about 10 minutes after second 40 ml.

With ferrous sulfate, the side effects result in data set [1] is listed as “nausea, vomiting, constipation”.

Take `CC(=O)N[O-].CC(=O)N[O-].CC(=O)N[O-].[Fe+3]` [ferric acetohydroxamic acid complex, iron (III) complex of acetohydroxamic acid]: in data set [2] (before injection 6.7), the Hgb came to 6.5 g%. In data set [2] (before injection 20.5), the Hct is reported as 20.0%. Further, the “saturation of serum transferrin” value in the data set on serum transferrin (addition of 6 mg of iron, IV, serum Fe equal to the TIBC) is “saturated the serum transferrin”. In addition, in the data set with serum transferrin (after a further 6 mg of iron, IV), the “serum iron relative to TIBC” value is “greater than the TIBC”. The “serum Fe” value in the data set on serum transferrin (setting [3]) is recorded as 360 μg/100 ml; in the data set on serum transferrin (setting [4]), 470 μg/100 ml. Also, the “TIBC (Total Iron Binding Capacity)” value in the data set on serum transferrin (setting [3]) turned out to be 360 μg/100 ml; with serum transferrin (setting [4]), 330 μg/100 ml.
